Tested on: Anastrepha serpentina
Assay: Reduction of fertility in 7 days old adult of Anastrepha serpentina assessed as reduction of egg hatching at 10 mg/g treated with diet measured after 7 days oviposition
Assay type: functional
Design: scale not given: the % may be the effect or the level left

O=C(NC(=O)c1c(F)cccc1F)Nc1cc(Cl)c(OC(F)(F)C(F)C(F)(F)F)cc1Cl (racemic) [LUFENURON]
Activity: 65.8%

From ChEMBL document CHEMBL3045535, “Evaluation of lufenuron as a chemosterilant against fruit flies of the genus Anastrepha (Diptera: Tephritidae)” (2010)
